# Test results from ChEMBL document CHEMBL3046281, “Nitrogen Analogues of Aldrin as Noncompetitive Antagonists of GABAA Receptor” (J Pestic Sci, 1995).
# pIC50: −log10 of the molar value. The source made the active and inactive calls. The rule behind the calls is not given here.
# Experiments:
# [1] = target: GABA-A receptor; anion channel (Rattus norvegicus) (UniProt O09028+P15431+P18506+P18508+P19969+P20236+P23574+P23576+P28471+P28473+P30191+P62813+P63079+P63138+Q91ZM7+Q9ES14); experiment: Competitive inhibition of [35S]TBPS binding to gamma-aminobutyric acid type-A receptor in Rattus norvegicus (rat) brain membranes at 50 nM incubated for 90 min by Scatchard plot; details: Membrane
# [2] = system: Musca domestica; experiment: Insecticidal activity against WHO susceptible Musca domestica (house fly) assessed as compound level causing mortality per fly applied through topical application; format: functional
# [3] = target: GABA-A receptor; anion channel; experiment: Displacement of [35S]TBPS from gamma-aminobutyric acid type-A receptor in Rattus norvegicus (rat) brain membranes incubated for 90 min by liquid scintillation counting method; parameters: species or system Membrane
SMILES,inhibition [1],LD50 [2],pIC50 [3]
ClC1=C(Cl)[C@]2(Cl)[C@H]3[C@H]([C@@H]4C[C@H]3N=N4)[C@@]1(Cl)C2(Cl)Cl,Active,2.8 ng,7.32
[O-][N+]1=N[C@@H]2C[C@H]1[C@H]1[C@@H]2[C@@]2(Cl)C(Cl)=C(Cl)[C@]1(Cl)C2(Cl)Cl (relative stereo),–,3.1 ng,6.93
ClC1=C(Cl)[C@]2(Cl)[C@@H]3[C@@H]4CC[C@@H](C4)[C@@H]3[C@@]1(Cl)C2(Cl)Cl [REL-ALDRIN],–,18.5 ng,7.27
